Measured values published in ChEMBL document CHEMBL1135773, “Purine and pyrimidine (P2) receptors as drug targets” (J Med Chem, 2002).

Tests used:
[1] = target: P2Y purinoceptor 1 (Meleagris gallopavo, UniProt P49652); test: Evaluated for agonist activity against phospholipase C coupled P2Y purinoceptor 1 (P2Y1) of turkey erythrocytes; format: functional
[2] = target: T1, P2X purinoceptor 4 (Rattus norvegicus, UniProt P51577); test: Antagonist activity against recombinant rat P2X purinoceptor 4 (P2X4) at 3 uM, expressed in Xenopus oocytes; format: functional, cell-based, Oocyte
T1 sequence (P51577 whole entry): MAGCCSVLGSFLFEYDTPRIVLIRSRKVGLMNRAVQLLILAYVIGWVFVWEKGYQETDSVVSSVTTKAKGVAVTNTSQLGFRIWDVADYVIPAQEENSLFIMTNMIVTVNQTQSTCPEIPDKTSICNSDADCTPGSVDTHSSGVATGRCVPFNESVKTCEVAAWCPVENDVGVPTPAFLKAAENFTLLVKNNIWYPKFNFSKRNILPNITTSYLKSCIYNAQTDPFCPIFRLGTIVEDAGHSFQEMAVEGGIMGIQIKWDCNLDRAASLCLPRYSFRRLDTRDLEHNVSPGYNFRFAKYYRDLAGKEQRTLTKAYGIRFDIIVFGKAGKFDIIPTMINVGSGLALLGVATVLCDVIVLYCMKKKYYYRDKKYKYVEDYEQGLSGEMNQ

[3] = target: T2, P2X purinoceptor 1 (Rattus norvegicus, UniProt P47824); test: The compound was evaluated for antagonist activity against recombinant rat P2X purinoceptor 1 (P2X1) at 1 uM, expressed in Xenopus oocytes; format: functional, cell-based, Oocyte
T2 sequence (P47824 whole entry): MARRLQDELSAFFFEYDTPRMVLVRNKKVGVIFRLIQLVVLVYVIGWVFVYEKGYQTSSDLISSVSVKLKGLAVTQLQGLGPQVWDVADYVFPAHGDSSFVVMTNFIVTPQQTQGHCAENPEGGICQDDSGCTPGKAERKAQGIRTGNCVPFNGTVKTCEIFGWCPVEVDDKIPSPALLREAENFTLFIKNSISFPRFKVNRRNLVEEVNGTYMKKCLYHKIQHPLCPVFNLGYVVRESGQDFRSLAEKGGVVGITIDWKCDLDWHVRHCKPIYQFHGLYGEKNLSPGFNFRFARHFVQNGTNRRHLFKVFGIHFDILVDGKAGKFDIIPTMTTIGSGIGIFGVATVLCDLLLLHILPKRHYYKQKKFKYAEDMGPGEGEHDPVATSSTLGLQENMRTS

[4] = target: P2Y purinoceptor 2 (Homo sapiens, UniProt P41231); test: Evaluated for agonist activity against phospholipase C coupled recombinant human P2Y purinoceptor 2 (P2Y2); format: functional
[5] = target: P2Y purinoceptor 12 (Rattus norvegicus, UniProt Q9EPX4); test: Antagonist activity against phospholipase C coupled rat P2Y purinoceptor 12 (P2Y12); format: functional
[6] = target: T3, P2X purinoceptor 1 (Homo sapiens, UniProt P51575); test: Antagonist activity against recombinant human P2X purinoceptor 1 (P2X1 ); format: functional
T3 sequence (P51575 whole entry): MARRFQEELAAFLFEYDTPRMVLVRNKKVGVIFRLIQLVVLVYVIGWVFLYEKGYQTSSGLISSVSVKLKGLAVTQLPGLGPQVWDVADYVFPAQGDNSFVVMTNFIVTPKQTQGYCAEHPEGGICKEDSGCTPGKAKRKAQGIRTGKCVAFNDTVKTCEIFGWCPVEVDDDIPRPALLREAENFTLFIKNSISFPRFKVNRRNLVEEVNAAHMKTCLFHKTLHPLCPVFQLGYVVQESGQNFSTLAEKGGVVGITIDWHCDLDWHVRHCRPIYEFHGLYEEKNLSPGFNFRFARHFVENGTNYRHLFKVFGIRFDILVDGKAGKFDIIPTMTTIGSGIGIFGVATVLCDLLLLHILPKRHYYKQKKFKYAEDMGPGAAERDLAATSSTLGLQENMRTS

[7] = target: T4, P2Y purinoceptor 11 (Homo sapiens, UniProt Q96G91); test: Agonist activity against phospholipase C coupled human P2Y purinoceptor 11 (P2Y11); format: functional
T4 sequence (Q96G91 whole entry): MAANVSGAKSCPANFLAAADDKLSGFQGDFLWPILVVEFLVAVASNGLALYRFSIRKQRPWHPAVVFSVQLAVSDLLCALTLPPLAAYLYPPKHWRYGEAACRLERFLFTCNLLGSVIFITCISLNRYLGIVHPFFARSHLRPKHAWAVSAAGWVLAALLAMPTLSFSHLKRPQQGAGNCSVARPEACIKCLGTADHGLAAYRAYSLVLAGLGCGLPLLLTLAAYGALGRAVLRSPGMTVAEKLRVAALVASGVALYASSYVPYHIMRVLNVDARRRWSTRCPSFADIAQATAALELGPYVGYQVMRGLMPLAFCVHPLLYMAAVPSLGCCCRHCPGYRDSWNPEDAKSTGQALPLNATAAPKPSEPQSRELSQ

[8] = target: P2Y purinoceptor 4 (Homo sapiens, UniProt P51582); test: The compound was evaluated for antagonist activity against phospholipase C coupled recombinant human P2Y purinoceptor 4 (P2Y4); format: functional
[9] = target: P2Y purinoceptor 6 (Homo sapiens, UniProt Q15077); test: The compound was evaluated for agonist activity against phospholipase C coupled recombinant human P2Y purinoceptor 6 (P2Y6); format: functional
[10] = target: T1, P2X purinoceptor 4; test: Antagonist activity against recombinant rat P2X purinoceptor 4 (P2X4) at 30 uM, expressed in Xenopus oocytes; format: functional, cell-based, Oocyte
[11] = target: T5, P2X purinoceptor 5 (Rattus norvegicus, UniProt P51578); test: Antagonist activity against recombinant rat P2X purinoceptor 5 (P2X5); format: functional
T5 sequence (P51578 whole entry): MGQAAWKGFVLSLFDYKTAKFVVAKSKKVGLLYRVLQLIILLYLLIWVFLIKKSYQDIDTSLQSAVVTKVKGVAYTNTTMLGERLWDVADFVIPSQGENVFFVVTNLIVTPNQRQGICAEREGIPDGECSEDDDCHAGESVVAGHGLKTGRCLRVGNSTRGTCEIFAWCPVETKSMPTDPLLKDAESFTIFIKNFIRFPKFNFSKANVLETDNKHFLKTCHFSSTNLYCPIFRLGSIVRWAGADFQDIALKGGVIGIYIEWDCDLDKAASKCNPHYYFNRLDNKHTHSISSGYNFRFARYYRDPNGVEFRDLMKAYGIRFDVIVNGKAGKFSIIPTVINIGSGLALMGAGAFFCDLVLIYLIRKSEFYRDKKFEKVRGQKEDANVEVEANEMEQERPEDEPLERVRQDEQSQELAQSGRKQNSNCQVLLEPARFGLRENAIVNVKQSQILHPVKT

[12] = target: P2X purinoceptor 6 (Rattus norvegicus, UniProt P51579); test: Antagonist activity against recombinant rat P2X purinoceptor 6 (P2X6 ); format: functional
[13] = target: T6, P2X purinoceptor 2 (Rattus norvegicus, UniProt P49653); test: Antagonist activity against recombinant rat receptor P2X purinoceptor 2 (P2X2) at 10 uM, expressed in Xenopus oocytes; format: functional, cell-based, Oocyte
T6 sequence (P49653 whole entry): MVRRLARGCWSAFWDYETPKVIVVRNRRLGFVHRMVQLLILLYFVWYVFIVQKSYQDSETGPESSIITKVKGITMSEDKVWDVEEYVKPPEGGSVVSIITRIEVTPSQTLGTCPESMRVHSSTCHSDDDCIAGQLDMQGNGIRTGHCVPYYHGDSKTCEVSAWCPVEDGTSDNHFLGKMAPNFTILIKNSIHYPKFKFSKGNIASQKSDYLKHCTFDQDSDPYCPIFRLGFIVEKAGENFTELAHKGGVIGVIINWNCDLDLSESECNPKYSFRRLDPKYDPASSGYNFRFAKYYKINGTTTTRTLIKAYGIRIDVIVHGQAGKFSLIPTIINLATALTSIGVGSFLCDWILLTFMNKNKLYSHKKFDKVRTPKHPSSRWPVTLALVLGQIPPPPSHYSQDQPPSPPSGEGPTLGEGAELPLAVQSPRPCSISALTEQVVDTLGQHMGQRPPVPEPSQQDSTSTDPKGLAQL

[14] = target: T7, P2X purinoceptor 3 (Homo sapiens, UniProt P56373); test: Antagonist activity against recombinant human P2X purinoceptor 3 (P2X3 ); format: functional
T7 sequence (P56373 whole entry): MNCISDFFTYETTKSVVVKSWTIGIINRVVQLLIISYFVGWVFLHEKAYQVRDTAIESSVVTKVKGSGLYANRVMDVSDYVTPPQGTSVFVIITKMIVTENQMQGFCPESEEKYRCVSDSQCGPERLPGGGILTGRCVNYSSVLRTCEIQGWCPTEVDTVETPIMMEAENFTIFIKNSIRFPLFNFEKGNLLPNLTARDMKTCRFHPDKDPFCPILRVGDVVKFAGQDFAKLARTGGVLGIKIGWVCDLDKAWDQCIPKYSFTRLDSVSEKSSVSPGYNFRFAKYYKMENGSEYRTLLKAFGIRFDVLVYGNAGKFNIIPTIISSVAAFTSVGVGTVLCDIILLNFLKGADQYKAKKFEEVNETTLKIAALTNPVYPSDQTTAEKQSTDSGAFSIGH

[15] = target: T2, P2X purinoceptor 1; test: The compound was evaluated for antagonist activity against P2X purinoceptor 1 (P2X1) like receptor from rat vas deferens; format: functional
[16] = target: P2Y purinoceptor 1 (Homo sapiens, UniProt P47900); test: Evaluated for agonist activity against phospholipase C coupled P2Y purinoceptor 1 (P2Y1) of human erythrocytes; format: functional
Chain of P2Y purinoceptor 1 (Homo sapiens, UniProt P47900) (P47900 whole entry): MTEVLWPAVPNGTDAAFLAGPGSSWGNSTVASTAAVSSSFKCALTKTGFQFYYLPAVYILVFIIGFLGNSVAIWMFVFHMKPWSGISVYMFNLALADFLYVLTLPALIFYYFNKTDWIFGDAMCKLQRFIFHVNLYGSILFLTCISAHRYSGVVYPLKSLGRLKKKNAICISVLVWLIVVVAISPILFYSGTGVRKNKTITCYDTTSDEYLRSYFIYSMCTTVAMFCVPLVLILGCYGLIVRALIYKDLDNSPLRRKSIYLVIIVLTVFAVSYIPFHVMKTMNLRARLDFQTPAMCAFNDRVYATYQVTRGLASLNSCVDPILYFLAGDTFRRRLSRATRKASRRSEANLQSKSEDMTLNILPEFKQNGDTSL

Chain of P2Y purinoceptor 12 (Q9EPX4 whole entry): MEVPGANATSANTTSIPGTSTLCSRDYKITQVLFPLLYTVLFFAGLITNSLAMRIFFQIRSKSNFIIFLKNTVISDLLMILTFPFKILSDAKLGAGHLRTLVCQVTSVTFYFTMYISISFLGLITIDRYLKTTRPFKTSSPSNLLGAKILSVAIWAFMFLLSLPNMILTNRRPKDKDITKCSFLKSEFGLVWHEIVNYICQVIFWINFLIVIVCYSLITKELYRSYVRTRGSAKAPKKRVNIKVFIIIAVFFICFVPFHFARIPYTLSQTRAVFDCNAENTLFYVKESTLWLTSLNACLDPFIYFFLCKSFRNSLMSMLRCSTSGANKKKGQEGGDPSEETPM
Chain of P2Y purinoceptor 1 (Meleagris gallopavo, UniProt P49652) (P49652 whole entry): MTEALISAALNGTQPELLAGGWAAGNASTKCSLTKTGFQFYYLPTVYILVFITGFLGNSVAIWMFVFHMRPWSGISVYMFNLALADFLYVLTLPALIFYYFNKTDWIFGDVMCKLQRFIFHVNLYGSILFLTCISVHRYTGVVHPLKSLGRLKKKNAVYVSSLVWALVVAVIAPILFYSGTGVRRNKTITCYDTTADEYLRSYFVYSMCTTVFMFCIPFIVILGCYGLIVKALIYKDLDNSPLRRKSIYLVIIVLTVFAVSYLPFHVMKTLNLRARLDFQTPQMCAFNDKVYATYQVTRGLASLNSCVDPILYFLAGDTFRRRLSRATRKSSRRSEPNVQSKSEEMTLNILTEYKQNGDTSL
Chain of P2Y purinoceptor 2 (P41231 whole entry): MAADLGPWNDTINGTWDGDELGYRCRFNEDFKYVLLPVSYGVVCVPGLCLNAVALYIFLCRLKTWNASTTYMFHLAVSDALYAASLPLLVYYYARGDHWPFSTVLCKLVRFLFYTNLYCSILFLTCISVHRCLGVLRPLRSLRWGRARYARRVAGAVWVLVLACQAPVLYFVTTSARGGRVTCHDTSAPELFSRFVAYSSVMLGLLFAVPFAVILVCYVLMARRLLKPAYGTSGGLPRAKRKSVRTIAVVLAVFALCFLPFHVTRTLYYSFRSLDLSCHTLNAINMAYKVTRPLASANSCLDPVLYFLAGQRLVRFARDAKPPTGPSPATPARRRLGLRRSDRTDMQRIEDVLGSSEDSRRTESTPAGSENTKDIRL
Chain of P2Y purinoceptor 6 (Q15077 whole entry): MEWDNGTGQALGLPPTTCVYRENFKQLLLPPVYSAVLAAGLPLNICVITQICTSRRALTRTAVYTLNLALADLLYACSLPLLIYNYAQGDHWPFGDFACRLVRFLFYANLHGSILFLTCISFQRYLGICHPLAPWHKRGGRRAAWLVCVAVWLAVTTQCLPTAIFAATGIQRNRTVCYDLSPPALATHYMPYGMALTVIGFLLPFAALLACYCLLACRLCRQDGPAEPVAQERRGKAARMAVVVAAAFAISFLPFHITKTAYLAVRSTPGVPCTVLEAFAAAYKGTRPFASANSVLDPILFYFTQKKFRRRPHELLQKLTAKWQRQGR
Chain of P2Y purinoceptor 4 (P51582 whole entry): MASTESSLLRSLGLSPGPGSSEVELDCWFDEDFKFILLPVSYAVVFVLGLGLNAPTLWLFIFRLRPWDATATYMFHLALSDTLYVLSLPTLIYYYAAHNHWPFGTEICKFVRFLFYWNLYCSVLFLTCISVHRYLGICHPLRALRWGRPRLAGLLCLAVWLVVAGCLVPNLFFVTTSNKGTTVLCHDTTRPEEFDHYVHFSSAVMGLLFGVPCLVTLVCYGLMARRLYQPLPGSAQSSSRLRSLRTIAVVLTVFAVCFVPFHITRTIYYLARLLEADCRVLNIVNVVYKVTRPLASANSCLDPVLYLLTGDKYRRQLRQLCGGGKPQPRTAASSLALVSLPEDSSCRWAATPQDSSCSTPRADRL
Chain of P2X purinoceptor 6 (P51579 whole entry): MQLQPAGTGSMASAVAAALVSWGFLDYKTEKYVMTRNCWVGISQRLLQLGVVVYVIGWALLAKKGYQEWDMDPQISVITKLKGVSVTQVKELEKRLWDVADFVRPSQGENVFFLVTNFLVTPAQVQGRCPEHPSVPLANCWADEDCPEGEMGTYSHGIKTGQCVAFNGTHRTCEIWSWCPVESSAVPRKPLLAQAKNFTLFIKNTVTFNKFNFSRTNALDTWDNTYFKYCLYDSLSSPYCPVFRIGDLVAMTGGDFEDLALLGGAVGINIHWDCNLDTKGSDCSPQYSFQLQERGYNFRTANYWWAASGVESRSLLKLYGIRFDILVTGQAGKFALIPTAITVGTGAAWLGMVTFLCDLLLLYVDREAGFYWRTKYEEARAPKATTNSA

In the case of `Nc1ncnc2c1ncn2[C@@H]1CO[C@H](COP(=O)(O)O)[C@@H](OP(=O)(O)O)C1`, the EC50 [1] is reported as 0.003 µM.
With `Nc1ccc(CCSc2nc(N)c3ncn([C@@H]4O[C@H](COP(=O)(O)OP(=O)(O)OP(=O)(O)O)[C@@H](O)[C@H]4O)c3n2)cc1` the EC50 [2] was 15 µM, the EC50 [1] was 0.0015 µM and the EC50 [3] was 0.098 µM.
`CSc1nc(N)c2ncn([C@@H]3O[C@H](COP(=O)(O)OP(=O)(O)O)[C@@H](O)[C@H]3O)c2n1` was tested, and the EC50 [4] was > 100 µM.
With `Nc1ncnc2c1ncn2[C@@H]1O[C@H](COP(=O)(O)OP(=O)(O)CP(=O)(O)O)[C@@H](O)[C@H]1O` [PHOSPHOMETHYLPHOSPHONIC ACID ADENYLATE ESTER] the EC50 [5] was > 100 µM, the EC50 [1] was > 100 µM and the EC50 [6] was 2 µM.
In the case of `CNc1nc(Cl)nc2c1ncn2[C@H]1C[C@@H](OP(=O)(O)O)[C@]2(COP(=O)(O)O)C[C@H]12`, the EC50 [4] is reported as > 100 µM, the EC50 [7] is reported as > 100 µM and the EC50 [5] is reported as > 100 µM. For the same compound, the EC50 [8] was > 100 µM, the EC50 [9] was > 100 µM and the EC50 [1] was 0.052 µM.
Work on `Nc1ncnc2c1ncn2[C@@H]1O[C@H](CO[P@](=O)(O)O[P@](=O)(O)O[P@@](=O)(O)S)[C@@H](O)[C@H]1O` yielded an EC50 [10] of 2.3 µM, an EC50 [11] of 0.6 µM and an EC50 [12] of 1.3 µM. For the same compound, the EC50 [13] was 1.5 µM, the EC50 [4] was 1.72 µM and the EC50 [14] was 0.69 µM. It also gave an EC50 [7] of 3 µM, an EC50 [5] of 1.3 µM and an EC50 [1] of 1.3 µM. The EC50 [6] was 2.3 µM.
With `Cc1cc(C)c(Nc2cc(S(=O)(=O)O)c(N)c3c2C(=O)c2ccccc2C3=O)c(C)c1` [ACID BLUE 129] the Kd [15] was > 100 µM.
In the case of `O=c1ccn([C@@H]2O[C@H](COP(=O)(O)OP(=O)(O)O)[C@@H](O)[C@H]2O)c(=O)[nH]1` [URIDINE_DIPHOSPHATE], the EC50 [16] is reported as > 100 µM, the EC50 [4] is reported as > 100 µM and the EC50 [9] is reported as 0.3 µM.
